pIC50: −log10 of the molar value.
Legend:
Format in all cases: cell-based, human
HCT-116 cells [1] = assay: Inhibition test for sphere-forming ability of cancer cells (Test Example 1), HCT-116; conditions: for pIC50: HCT-116 cells, concentration for 50% inhibition of cell proliferation, read-out: IC50 (μmol/L) HCT-116 (Sphere IC50 value); for inhibitory effect on the sphere-forming ability of cancer cells: Test Example 1, summary in words, cell line not given (HCT-116, HT-29, FaDu tested)
Summary of the method: (§1)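 Sphere formation, non-adherent, serum-free: 350-800 cells/well, DMEM/F12 + 2% B27, 20 ng/mL EGF, 10 ng/mL bFGF, 5 μg/mL insulin. Compound in 0.1% DMSO final, 4 d. CellTiter-Glo luminescence; IC50 (μmol/L) for 50% inhibition of proliferation.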

HT-29 cells [2] = assay: Inhibition test for sphere-forming ability of cancer cells (Test Example 1), HT-29; conditions: concentration for 50% inhibition of cell proliferation, read-out: IC50 (μmol/L) HT-29 (Sphere IC50 value)
Summary of the method: as §1

FaDu cells [3] = assay: Inhibition test for sphere-forming ability of cancer cells (Test Example 1), FaDu; conditions: concentration for 50% inhibition of cell proliferation, read-out: IC50 (μmol/L) FaDu (Sphere IC50 value)
Summary of the method: as §1

HCT-116 cells [4] = assay: Inhibition test for sphere-forming ability of cancer cells in the presence of BSA (Test Example 2), HCT-116; conditions: for pIC50: HCT-116 cells, in the presence of 5% BSA, cultured 4 days; for inhibitory effect on the sphere-forming ability of cancer cells: Test Example 2, in the presence of 5% BSA, summary in words, cell line not given (HCT-116, HT-29, FaDu tested)
Protocol: (§2) Human colorectal cancer-derived HCT-116 cells, human colon-adenocarcinoma-derived HT-29 cells, and human pharyngeal cancer-derived FaDu cells were available from American Type Culture Collection (ATCC). HCT-116 cells and HT-29 cells were cultured at 37° C. under 5% CO2 using the McCoy's 5a medium containing 10% fetal bovine serum (FBS) and 1% penicillin/streptomycin, and FaDu cells were cultured at 37° C. under 5% CO2 using the MEM medium containing 10% FBS, 1% non-essential amino acid, 1% sodium pyruvate, 5% bovine serum albumin (BSA), and 1% penicillin/streptomycin. HCT-116 cells, HT-29 cells, and FaDu cells were seeded in a 384 Well Black Clear Bottom Ultra-Low Attachment Microplate (Corning Cat. No. 3827) in an amount of 350-800 cells/well using the DMEM/F12 medium containing 2% B27 supplement (GIBCO), 20 ng/mL epidermal growth factor (EGF) (peprotech), 10 ng/mL basic fibroblast growth factor (bFGF) (peprotech), 5 μg/mL insulin (Sigma), 5% bovine serum albumin (BSA), and 1% penicillin/streptomycin. Each test compound was added into each well to adjust the final concentration of DMSO to 0.1%, and the cells were cultured for 4 days. The number of viable cells in each well was then measured with CellTiter-Glo® Luminescent Cell Viability Assay (Promega) to calculate the concentration of each test compound for 50% inhibition of cell proliferation (Sphere IC50 value; μmol/L).
(§3) The experiment of Test Example 2 was performed for each compound of each Example.
(§4) The concentration of each test compound for 50% inhibition of cell proliferation (Sphere IC50 value; μmol/L) is shown in the following Table.

HT-29 cells [5] = assay: Inhibition test for sphere-forming ability of cancer cells in the presence of BSA (Test Example 2), HT-29; conditions: in the presence of 5% BSA, cultured 4 days
Protocol: as §2, §3, §4

FaDu cells [6] = assay: Inhibition test for sphere-forming ability of cancer cells in the presence of BSA (Test Example 2), FaDu; conditions: in the presence of 5% BSA, cultured 4 days
Protocol: as §2, §3, §4

Row | SMILES | pIC50 (HCT-116 cells [1]; Homo sapiens) | pIC50 (HT-29 cells [2]; Homo sapiens) | pIC50 (FaDu cells [3]; Homo sapiens) | pIC50 (HCT-116 cells [4]; Homo sapiens, HCT-116, 96 h) | pIC50 (HT-29 cells [5]; Homo sapiens, 96 h) | pIC50 (FaDu cells [6]; Homo sapiens, 96 h) | inhibitory effect on the sphere-forming ability of cancer cells (HCT-116 cells [1]) | pIC50 (HCT-116 cells [1]) | pIC50 (HT-29 cells [2]) | pIC50 (FaDu cells [3]) | pIC50 (HCT-116 cells [4]) | pIC50 (HT-29 cells [5]) | pIC50 (FaDu cells [6]) | inhibitory effect on the sphere-forming ability of cancer cells (HCT-116 cells [4])
1 | COc1ccc(C(=O)Nc2cn(Cc3cc(F)c(F)cc3F)cn2)cc1OC [Example 143, 3,4-Dimethoxy-N-[1-(2,4,5-trifluorobenzyl)-1H-imidazol-4-yl]benzamide] | 6.02 | 6.08 | 6.03 | 5.20 | 5.28 | 6.02 | – | – | – | – | – | – | – | –
2 | COc1ccc(C(=O)Nc2cn(Cc3ccc(F)c(F)c3)cn2)cc1OC [Example 151, 3,4-dimethoxy-N-[1-(3,4-difluorobenzyl)-1H-imidazol-4-yl]benzamide] | 6.46 | 7.05 | 6.51 | 6.19 | 6.26 | 6.48 | particularly potent inhibitory effect | – | – | – | – | – | – | –
3 | COc1ccc(C(=O)Nc2cn(Cc3ccc(F)c(F)c3F)cn2)cc1OC [Example 153] | – | – | – | – | – | – | – | 6.18 | 6.14 | 6.09 | 5.19 | 5.49 | 6.18 | –
4 | CC(=O)Nc1ccc(/C=C/C(=O)Nc2cn(Cc3cccc(OC(F)(F)F)c3)cn2)cc1 [Example 10, (2E)-3-[4-(acetylamino)phenyl]-N-{1-[3-(trifluoromethoxy)benzyl]-1H-imidazol-4-yl}prop-2-enamide] | 6.20 | 7.15 | 7.15 | 6.08 | 6.26 | 6.55 | – | – | – | – | – | – | – | –
5 | CC(=O)Nc1ccc(/C=C/C(=O)Nc2cn(Cc3cc(F)c(F)c(F)c3)cn2)cc1 [Example 11, (2E)-3-[4-(acetylamino)phenyl]-N-[1-(3,4,5-trifluorobenzyl)-1H-imidazol-4-yl]prop-2-enamide] | > 8.00 | 7.10 | 7.10 | 6.59 | 7.15 | 7.22 | particularly potent inhibitory effect | – | – | – | – | – | – | particularly potent inhibitory effect
6 | CC(=O)Nc1ccc(/C=C/C(=O)Nc2cn(Cc3cccc(C(F)(F)F)c3)cn2)cc1 [Example 8, (2E)-3-[4-(acetylamino)phenyl]-N-{1-[3-(trifluoromethyl)benzyl]-1H-imidazol-4-yl}prop-2-enamide] | 6.51 | 7.30 | 7.22 | 6.20 | 6.43 | 7.15 | particularly potent inhibitory effect | – | – | – | – | – | – | particularly potent inhibitory effect
7 | CCCC(=O)Nc1ccc(/C=C/C(=O)Nc2cn(Cc3cccc(Cl)c3)cn2)cc1 [Example 6, (E)-N-(4-(3-((1-(3-Chlorobenzyl)-1H-imidazol-4-yl)amino)-3-oxoprop-1-en-1-yl)phenyl)butylamide] | 6.26 | 6.74 | 6.77 | 6.08 | 6.21 | 6.22 | – | – | – | – | – | – | – | –
8 | COc1ccc(C(=O)Nc2cn(Cc3ccccc3F)cn2)cc1OC [Example 144] | – | – | – | – | – | – | – | 5.24 | 5.33 | 5.24 | < 5.00 | 5.25 | 5.36 | –
9 | COc1ccc(C(=O)Nc2cn(Cc3ccc(F)cc3)cn2)cc1OC [Example 146] | – | – | – | – | – | – | – | 6.19 | 6.13 | 6.10 | 5.22 | 6.09 | 6.26 | –
10 | COc1ccc(C(=O)Nc2cn(Cc3ccc(F)cc3F)cn2)cc1OC [Example 148] | – | – | – | – | – | – | – | 5.28 | 5.32 | 5.10 | < 5.00 | 5.17 | 5.30 | –
11 | COc1ccc(C(=O)Nc2cn(Cc3ccc(F)cc3C(F)(F)F)cn2)cc1OC [Example 163] | – | – | – | – | – | – | – | 5.45 | 5.82 | 5.76 | < 5.00 | 5.26 | 5.30 | –
12 | CCNc1ccc(/C=C/C(=O)Nc2cn(Cc3cccc(Cl)c3)cn2)cn1 [Example 18] | – | – | – | – | – | – | particularly potent inhibitory effect | 7.15 | 7.70 | 7.22 | 6.24 | 7.30 | 7.52 | particularly potent inhibitory effect
13 | O=C(/C=C/c1cccnc1)Nc1cn(Cc2cccc(Cl)c2)cn1 [Example 41, (2E)-N-[1-(3-chlorobenzyl)-1H-imidazol-4-yl]-3-(pyridin-3-yl)prop-2-enamide] | 6.05 | 6.27 | 6.14 | 5.24 | 5.37 | 6.23 | – | – | – | – | – | – | – | –
14 | COc1ccc(C(=O)Nc2cn(Cc3cccc(Cl)c3)cn2)cc1OC [Example 141, N-[1-(3-chlorobenzyl)-1H-imidazol-4-yl]-3,4-dimethoxybenzamide] | 6.20 | 6.28 | 6.07 | 5.31 | 6.19 | 6.26 | – | – | – | – | – | – | – | –
15 | COc1ccc(/C=C/C(=O)Nc2cn(Cc3cc(F)c(F)c(F)c3)cn2)cc1OCCO [Example 32, (E)-3-(3-(2-Hydroxyethoxy)-4-methoxyphenyl)-N-(1-(3,4,5-trifluorobenzyl)-1H-imidazol-4-yl)acrylamide] | 7.22 | 7.15 | 7.22 | 7.22 | 7.22 | 7.52 | particularly potent inhibitory effect | – | – | – | – | – | – | particularly potent inhibitory effect
16 | Cl.O=C(/C=C/c1ccc(F)c(O)c1)Nc1cn(Cc2cccc(Cl)c2)cn1 [Example 38] | 6.82 | 6.05 | > 8.00 | 6.14 | 6.24 | 7.52 | particularly potent inhibitory effect | – | – | – | – | – | – | –
17 | COc1ccc(/C=C/C(=O)Nc2cn(Cc3cccc(C(F)(F)F)c3)cn2)cc1OCCO [Example 34, (2E)-3-[3-(2-hydroxyethoxy)-4-methoxyphenyl]-N-{1[3-(trifluoromethyl)benzyl]-1H-imidazol-4-yl}prop-2-enamide] | 7.05 | 7.22 | 7.05 | 6.20 | 6.24 | 7.15 | particularly potent inhibitory effect | – | – | – | – | – | – | particularly potent inhibitory effect
18 | O=C(Nc1ccc(CO)cc1)c1cn(Cc2cc(F)c(F)c(F)c2)cn1 [Example 253] | – | – | – | – | – | – | particularly potent inhibitory effect | 7.15 | 7.10 | – | 6.24 | 7.15 | – | particularly potent inhibitory effect
19 | O=C(Nc1cn(Cc2cccc(C(F)(F)F)c2)cn1)c1cncnc1 [Example 180] | – | – | – | – | – | – | – | 5.06 | 6.12 | – | < 5.00 | 5.31 | – | –
20 | COC(=O)c1ccc(/C=C/C(=O)Nc2cn(Cc3cccc(C(F)(F)F)c3)cn2)cn1 [Example 131, Methyl 5-[(1E)-3-oxo-3-({1-[3-(trifluoromethyl)benzyl]-1H-imidazol-4-yl}amino)prop-1-en-1-yl]picolinate] | < 5.00 | 5.06 | – | 5.04 | 6.27 | – | – | – | – | – | – | – | – | –
21 | O=C(/C=C/c1cccnc1)Nc1cn(Cc2cc(F)c(F)c(F)c2)cn1 [Example 231] | 6.25 | 7.15 | – | 6.15 | 6.28 | – | particularly potent inhibitory effect | – | – | – | – | – | – | –
22 | COc1ccc(C(=O)Nc2cn(Cc3cccc(Cl)c3)c(C)n2)cc1OC [Example 102] | 5.10 | 5.39 | – | < 5.00 | 5.22 | – | – | – | – | – | – | – | – | –

Reference: patent US10898469B2, “Imidazolylamide derivative” (Sumitomo Dainippon Pharma Co., Ltd., priority 2016, dated 2021)
